≈ marks a conversion by molar mass, not a printed value.
Experiments:
[1] = system: carbapenemase producing K. pneumoniae; experiment: MIC by broth micro-dilution (CLSI), carbapenemase producing K. pneumoniae; type: cell-based, Klebsiella pneumoniae; settings: Klebsiella pneumoniae, ATCCBAA1705, KPC-2 K. pneumoniae ATCC BAA-1705; read-out: MIC
[2] = system: carbapenem sensitive Pseudomonas aeruginosa; experiment: MIC by broth micro-dilution (CLSI), carbapenem sensitive P. aeruginosa; type: cell-based; settings: Pseudomonas aeruginosa, ATCC27853, Meropenem susceptible P. aeruginosa ATCC27853; read-out: MIC
[3] = system: extended spectrum β lactamase (ESBL) SHV18 producing Klebsiella pneumoniae; experiment: MIC by broth micro-dilution (CLSI), ESBL SHV18 producing K. pneumoniae; type: cell-based; settings: Klebsiella pneumoniae, ATCC700603, 22 h, ESBL +ve (SHV-18) K. pneumoniae ATCC700603; read-out: MIC
[4] = system: methicillin-sensitive Staphylococcus aureus; experiment: MIC by broth micro-dilution (CLSI), methicillin-sensitive S. aureus; type: cell-based; settings: Staphylococcus aureus, ATCC 29213 / MSSA, MSSA S. aureus ATCC29213; read-out: MIC
[5] = system: carbapenem sensitive Escherichia coli; experiment: MIC by broth micro-dilution (CLSI), carbapenem sensitive E. coli; type: cell-based; settings: Escherichia coli, ATCC25922, ESBL −ve E. coli ATCC25922; read-out: MIC

MIC [1] [µg/mL]	MIC [2] [µg/mL]	MIC [3] [µg/mL]	MIC [4] [µg/mL]	MIC [5] [µg/mL]	Structure (SMILES)
8 (≈ 14 µM)	64 (≈ 112 µM)	2 (≈ 3.49 µM)	4 (≈ 6.99 µM)	0.5 (≈ 0.873 µM)	C[C@@H](NC(=O)C(F)F)[C@H]1C(=O)N2C(C(=O)O)=C(S[C@@H]3CN[C@H](C(=O)N4CC[C@H](NC(=O)N(C)C)C4)C3)[C@H](C)[C@H]12 [Example 118]
4 (≈ 7.15 µM)	64 (≈ 114 µM)	2 (≈ 3.57 µM)	2 (≈ 3.57 µM)	0.5 (≈ 0.894 µM)	COC(=O)N[C@H]1CCN(C(=O)[C@@H]2C[C@H](SC3=C(C(=O)O)N4C(=O)[C@H]([C@@H](C)NC(=O)C(F)F)[C@H]4[C@H]3C)CN2)C1 [Example 123]
8 (≈ 15.5 µM)	32 to 128 (≈ 62.1 to 248 µM)	1 (≈ 1.94 µM)	16 (≈ 31 µM)	0.5 (≈ 0.97 µM)	C[C@@H](NS(C)(=O)=O)[C@H]1C(=O)N2C(C(=O)O)=C(S[C@@H]3CN[C@H](C(=O)N4CCN(C)CC4)C3)[C@H](C)[C@H]12 [Example 23]
2 (≈ 4.08 µM)	4 (≈ 8.15 µM)	16 (≈ 32.6 µM)	8 (≈ 16.3 µM)	1 (≈ 2.04 µM)	CNCC(=O)N[C@H](C)[C@H]1C(=O)N2C(C(=O)O)=C(S[C@@H]3CN[C@H](CNS(N)(=O)=O)C3)[C@H](C)[C@H]12 [Example 169]
64 (≈ 123 µM)	16 (≈ 30.8 µM)	16 (≈ 30.8 µM)	16 (≈ 30.8 µM)	2 (≈ 3.85 µM)	C[C@@H](NS(C)(=O)=O)[C@H]1C(=O)N2C(C(=O)O)=C(S[C@@H]3CN[C@H](C(=O)N(CCN)CCO)C3)[C@H](C)[C@H]12 [Example 201]
16 (≈ 31.2 µM)	8 (≈ 15.6 µM)	64 (≈ 125 µM)	64 (≈ 125 µM)	4 (≈ 7.8 µM)	CNCC(=O)N[C@H](C)[C@H]1C(=O)N2C(C(=O)O)=C(S[C@@H]3CN[C@H](C(=O)N(CCN)CCO)C3)[C@H](C)[C@H]12 [Example 202]
> 128	> 128	> 128	0.25	64	C[C@@H](NC(=O)C(F)F)[C@H]1C(=O)N2C(C(=O)O)=C(Sc3nc(-c4cc[n+](C)cc4)cs3)[C@H](C)[C@H]12 [Example 94]
8 (≈ 14 µM)	> 128	8 (≈ 14 µM)	4 (≈ 7.01 µM)	1 (≈ 1.75 µM)	COc1coc(CNC(=O)[C@@H]2C[C@H](SC3=C(C(=O)O)N4C(=O)[C@H]([C@@H](C)NC(=O)C(F)F)[C@H]4[C@H]3C)CN2)cc1=O [Example 137]
8 (≈ 16.7 µM)	64 (≈ 134 µM)	8 (≈ 16.7 µM)	2 (≈ 4.18 µM)	1 to 2 (≈ 2.09 to 4.18 µM)	C[C@@H](NC(=O)C(F)(F)F)[C@H]1C(=O)N2C(C(=O)O)=C(S[C@@H]3CN[C@H](C(=O)N(C)C)C3)[C@H](C)[C@H]12 [Example 64]
4 (≈ 7.98 µM)	32 (≈ 63.8 µM)	8 (≈ 16 µM)	2 (≈ 3.99 µM)	1 (≈ 1.99 µM)	C[C@@H](NC(=O)C(F)F)[C@H]1C(=O)N2C(C(=O)O)=C(S[C@@H]3CN[C@H](C(=O)N[C@@H]4CCNC4)C3)[C@H](C)[C@H]12 [Example 130]
8 (≈ 15.1 µM)	64 (≈ 121 µM)	8 (≈ 15.1 µM)	2 (≈ 3.78 µM)	1 (≈ 1.89 µM)	C[C@@H](NC(=O)C(F)(F)C(F)(F)F)[C@H]1C(=O)N2C(C(=O)O)=C(S[C@@H]3CN[C@H](C(=O)N(C)C)C3)[C@H](C)[C@H]12 [Example 87]
4 to 8 (≈ 8.31 to 16.6 µM)	> 128	8 (≈ 16.6 µM)	8 (≈ 16.6 µM)	2 (≈ 4.15 µM)	C[C@@H](NC(=O)C(=O)N(C)C)[C@H]1C(=O)N2C(C(=O)O)=C(S[C@@H]3CN[C@H](C(=O)N(C)C)C3)[C@H](C)[C@H]12 [Example 66]
8 (≈ 15.4 µM)	> 128	8 (≈ 15.4 µM)	2 (≈ 3.85 µM)	2 (≈ 3.85 µM)	COCc1cn([C@H](C)[C@H]2C(=O)N3C(C(=O)O)=C(S[C@@H]4CN[C@H](C(=O)N5CC[C@@H](N)C5)C4)[C@H](C)[C@H]23)nn1 [Example 232]
32 (≈ 60.2 µM)	> 128	32 (≈ 60.2 µM)	8 (≈ 15 µM)	4 (≈ 7.52 µM)	C[C@H](NS(C)(=O)=O)C(=O)N[C@H](C)[C@H]1C(=O)N2C(C(=O)O)=C(S[C@@H]3CN[C@H](C(=O)N(C)C)C3)[C@H](C)[C@H]12 [Example 51]
4 (≈ 7.85 µM)	4 (≈ 7.85 µM)	8 (≈ 15.7 µM)	128 (≈ 251 µM)	2 (≈ 3.92 µM)	CNCC(=O)N[C@H](C)[C@H]1C(=O)N2C(C(=O)O)=C(S[C@@H]3CN[C@H](C(=O)N4C[C@H](N)[C@@H](N)C4)C3)[C@H](C)[C@H]12 [Example 200]
2 to 4 (≈ 3.86 to 7.71 µM)	> 128	4 (≈ 7.71 µM)	1 (≈ 1.93 µM)	1 (≈ 1.93 µM)	C[C@@H](NC(=O)C(F)F)[C@H]1C(=O)N2C(C(=O)O)=C(S[C@@H]3CN[C@H](C(=O)N4CCSCC4)C3)[C@H](C)[C@H]12 [Example 35]
4 (≈ 8.31 µM)	32 (≈ 66.4 µM)	4 (≈ 8.31 µM)	32 (≈ 66.4 µM)	1 (≈ 2.08 µM)	CCCNCC(=O)N[C@H](C)[C@H]1C(=O)N2C(C(=O)O)=C(S[C@@H]3CN[C@H](C(=O)N(C)C)C3)[C@H](C)C12 (stereo partly drawn) [Example 139]
16 (≈ 34 µM)	128 (≈ 272 µM)	8 (≈ 17 µM)	2 (≈ 4.25 µM)	1 (≈ 2.12 µM)	CCOC(=S)N[C@H](C)[C@H]1C(=O)N2C(C(=O)O)=C(S[C@@H]3CN[C@H](C(=O)N(C)C)C3)[C@H](C)[C@H]12 [Example 20]
> 128	> 128	> 128	2 (≈ 3.87 µM)	64 (≈ 124 µM)	CC(C)CC(F)(F)C(=O)N[C@H](C)[C@H]1C(=O)N2C(C(=O)O)=C(S[C@@H]3CN[C@H](C(=O)N(C)C)C3)[C@H](C)[C@H]12 [Example 83]
2 (≈ 4.04 µM)	2 (≈ 4.04 µM)	2 (≈ 4.04 µM)	32 (≈ 64.7 µM)	1 (≈ 2.02 µM)	CNCC(=O)N[C@@H](C)[C@H]1C(=O)N2C(C(=O)O)=C(S[C@H]3CN[C@H](C(=O)N4CC[C@@H](N)C4)C3)[C@H](C)[C@H]12 [Example 95, (4R,5S,6R)-3-((3R,5S)-5-((R)-3-aminopyrrolidine-1-carbonyl)pyrrolidin-3-ylthio)-4-methyl-6-((S)-1-(2-(methylamino)acetamido)ethyl)-7-oxo-1-azabicyclo[3.2.0]hept-2-ene-2-carboxylic acid]
4 (≈ 7.86 µM)	4 (≈ 7.86 µM)	16 (≈ 31.5 µM)	64 (≈ 126 µM)	2 (≈ 3.93 µM)	CNCC(=O)N[C@H](C)[C@H]1C(=O)N2C(C(=O)O)=C(S[C@@H]3CN[C@H](C(=O)N4CCC(N)CC4)C3)[C@H](C)[C@H]12 [Example 190]
32 (≈ 68.3 µM)	> 128	64 to 128 (≈ 137 to 273 µM)	2 (≈ 4.27 µM)	8 (≈ 17.1 µM)	CC(C)OC(=O)N[C@H](C)[C@H]1C(=O)N2C(C(=O)O)=C(S[C@@H]3CN[C@H](C(=O)N(C)C)C3)[C@H](C)[C@H]12 [Example 22]
4 (≈ 7.96 µM)	32 to 64 (≈ 63.7 to 127 µM)	1 (≈ 1.99 µM)	4 to 8 (≈ 7.96 to 15.9 µM)	0.5 to 1 (≈ 0.995 to 1.99 µM)	C[C@@H](NC(=O)C(F)F)[C@H]1C(=O)N2C(C(=O)O)=C(S[C@@H]3CN[C@H](C(=O)N4CC[C@H](O)C4)C3)[C@H](C)[C@H]12 [Example 77]
4 (≈ 8.19 µM)	128 (≈ 262 µM)	32 (≈ 65.5 µM)	1 (≈ 2.05 µM)	1 (≈ 2.05 µM)	C[C@@H](NC(=O)C(F)F)[C@H]1C(=O)N2C(C(=O)O)=C(S[C@@H]3CN[C@H](CN4CCOCC4)C3)[C@H](C)[C@H]12 [Example 90]

— patent US11180504B2 (ORCHID PHARMA LTD., priority 2016, dated 2021)
